Results on 1 molecule are retold here after US20230248653A1, “ELECTROSPRAYED AND ELECTROSPUN CANNABINOID COMPOSITIONS AND PROCESS TO PRODUCE” (priority 2019, published 2023).

This data set is described as follows: Solubility of CBD in water, HFIP and acetic acid-water solutions. It is filed as physicochemical. The source says: Fast dissolving particles were produced using edible gelatin nanoscale particles created from acetic acid-water based solutions. A solution was created, and the electrospray process was repeated to see if reproducible results were obtainable.
In order to create CBD particles in a gelatin-based solution, the solubility of CBD in different acetic acid-water based solutions was explored.

SMILES strings stand for the structures.

For `C=C(C)[C@@H]1CCC(C)=C[C@H]1c1c(O)cc(CCCCC)cc1O` [CBD, Cannabidiol], the “solubility in acetic acid-water solution” value is “Emulsions were formed” (30% v/v AA(aq.)); “Emulsions were formed” (40% v/v AA(aq.)); “clear, homogeneous and well mixed soluble CBD solution” (50% v/v AA(aq.) and higher concentrations). Further, where the note is “HFIP”, the “solubility in HFIP” value is on record as “soluble”. Also, the solubility in water result (water) was “not able to dissolve in water”.
